Results on 30 compounds are retold here after patent publication US9212182B2, “Bicyclic sulfonamide compounds as sodium channel inhibitors” (AMGEN INC., priority 2013, dated 2015).

SMILES strings stand for the structures. Like-named read-outs stand apart in the source and are kept apart here.

For the assay, the target named is Nav 1.7 (Homo sapiens (Human), UniProt Q15858). Kind of assay: in-vitro Nav 1.7 PX (IC50). The format is cell-based.
Setting [1] is: in-vitro Nav 1.7 PX data (PatchXpress).

Nav 1.7, sequence (Q15858 whole entry): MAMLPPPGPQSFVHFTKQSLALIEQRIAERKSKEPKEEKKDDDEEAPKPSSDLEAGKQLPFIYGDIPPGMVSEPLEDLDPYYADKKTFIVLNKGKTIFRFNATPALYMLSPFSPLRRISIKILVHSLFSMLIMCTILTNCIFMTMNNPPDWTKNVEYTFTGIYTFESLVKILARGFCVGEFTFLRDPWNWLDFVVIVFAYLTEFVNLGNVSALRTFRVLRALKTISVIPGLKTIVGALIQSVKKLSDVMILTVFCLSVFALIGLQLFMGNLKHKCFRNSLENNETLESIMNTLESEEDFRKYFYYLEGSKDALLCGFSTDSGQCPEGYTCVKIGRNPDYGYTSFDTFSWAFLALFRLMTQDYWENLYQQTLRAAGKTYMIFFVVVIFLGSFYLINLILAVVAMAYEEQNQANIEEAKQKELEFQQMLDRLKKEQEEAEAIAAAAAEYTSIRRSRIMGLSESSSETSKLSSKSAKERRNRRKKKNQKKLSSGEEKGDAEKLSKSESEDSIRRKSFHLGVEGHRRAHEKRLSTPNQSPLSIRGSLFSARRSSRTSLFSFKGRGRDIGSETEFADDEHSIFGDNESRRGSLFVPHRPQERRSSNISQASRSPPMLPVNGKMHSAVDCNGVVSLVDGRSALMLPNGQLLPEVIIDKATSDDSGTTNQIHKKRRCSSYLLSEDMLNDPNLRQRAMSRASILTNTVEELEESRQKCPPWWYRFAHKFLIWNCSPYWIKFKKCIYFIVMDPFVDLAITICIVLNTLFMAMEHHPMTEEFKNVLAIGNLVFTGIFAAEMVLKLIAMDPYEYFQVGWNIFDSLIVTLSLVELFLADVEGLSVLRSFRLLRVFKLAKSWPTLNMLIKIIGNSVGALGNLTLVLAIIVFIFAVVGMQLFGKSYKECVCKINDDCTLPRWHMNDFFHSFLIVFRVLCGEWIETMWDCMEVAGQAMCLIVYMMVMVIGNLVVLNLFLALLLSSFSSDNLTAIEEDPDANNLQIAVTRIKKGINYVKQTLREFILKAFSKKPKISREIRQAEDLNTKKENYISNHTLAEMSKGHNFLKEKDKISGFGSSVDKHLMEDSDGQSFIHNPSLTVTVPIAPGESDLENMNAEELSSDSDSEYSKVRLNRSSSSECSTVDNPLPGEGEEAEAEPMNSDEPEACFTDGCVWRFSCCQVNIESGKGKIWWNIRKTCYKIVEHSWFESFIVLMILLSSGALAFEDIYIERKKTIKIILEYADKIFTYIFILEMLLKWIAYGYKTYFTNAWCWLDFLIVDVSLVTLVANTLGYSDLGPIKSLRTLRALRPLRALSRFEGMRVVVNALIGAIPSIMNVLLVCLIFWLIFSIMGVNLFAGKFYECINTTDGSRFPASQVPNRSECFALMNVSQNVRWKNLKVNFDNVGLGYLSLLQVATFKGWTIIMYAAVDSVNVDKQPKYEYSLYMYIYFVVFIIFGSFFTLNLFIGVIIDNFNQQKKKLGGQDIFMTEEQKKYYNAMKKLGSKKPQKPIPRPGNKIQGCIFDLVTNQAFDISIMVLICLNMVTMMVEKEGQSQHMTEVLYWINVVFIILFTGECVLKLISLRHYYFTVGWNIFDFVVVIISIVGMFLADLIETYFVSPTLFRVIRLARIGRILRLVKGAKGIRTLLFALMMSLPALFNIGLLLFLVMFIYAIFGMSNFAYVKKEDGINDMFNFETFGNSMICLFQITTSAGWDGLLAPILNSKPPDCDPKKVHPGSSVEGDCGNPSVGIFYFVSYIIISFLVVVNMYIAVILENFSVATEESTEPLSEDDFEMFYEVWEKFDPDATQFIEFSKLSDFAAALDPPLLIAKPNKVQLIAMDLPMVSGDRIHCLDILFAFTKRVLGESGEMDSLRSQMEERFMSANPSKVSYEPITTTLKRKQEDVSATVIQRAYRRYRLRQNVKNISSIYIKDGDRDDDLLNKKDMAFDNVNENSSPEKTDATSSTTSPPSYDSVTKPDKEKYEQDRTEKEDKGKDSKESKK

For the compound `COc1cc(-c2cccc(C(F)(F)F)c2)ccc1-n1c(=O)ccc2cc(S(=O)(=O)Nc3cc(C)ncn3)ccc21` [Example 946, 1-(3-methoxy-3′-(trifluoromethyl)-4-biphenylyl)-N-(6-methyl-4-pyrimidinyl)-2-oxo-1,2-dihydro-6-quinolinesulfonamide], half-maximal inhibition (in-vitro Nav 1.7 PX data) (IC50) was put at 0.024 µM.

As for `COc1cc(-c2cc(Cl)ccc2C)ccc1-n1c(=O)ccc2cc(S(=O)(=O)Nc3ncco3)ccc21` [Example 1067, 1-(5′-chloro-3-methoxy-2′-methyl-4-biphenylyl)-N-1,3-oxazol-2-yl-2-oxo-1,2-dihydro-6-quinolinesulfonamide], the midpoint of inhibition under setting [1], the IC50, lay at 0.006 µM.

With `COc1cc(-c2ccc(F)c(F)c2)c(F)cc1-n1c(=O)ccc2cc(S(=O)(=O)Nc3ncccn3)ccc21` [Example 935, 2-oxo-N-2-pyrimidinyl-1-(2,3′,4′-trifluoro-5-methoxy-4-biphenylyl)-1,2-dihydro-6-quinolinesulfonamide], where the note is “in-vitro Nav 1.7 PX data”, the IC50 – broadly, the concentration that gives 50% inhibition – was 0.022 µM. On to `COc1cc(-c2cccc(OC(C)C)c2)ccc1-n1c(=O)ccc2cc(S(=O)(=O)Nc3ncc(F)cn3)ccc21` [Example 827, N-(5-fluoro-2-pyrimidinyl)-1-(3-methoxy-3′-(1-methylethoxy)-4-biphenylyl)-2-oxo-1,2-dihydro-6-quinolinesulfonamide], for which, under “in-vitro Nav 1.7 PX data”, 0.177 µM corresponded to half-maximal inhibition (IC50). `COc1ccc(-c2ccccc2F)cc1-n1c(=O)ccc2cc(S(=O)(=O)Nc3ccon3)ccc21` [Example 836, 1-(2′-fluoro-4-methoxy-3-biphenylyl)-N-3-isoxazolyl-2-oxo-1,2-dihydro-6-quinolinesulfonamide] came in with an IC50 (in-vitro Nav 1.7 PX data) of 0.12 µM. In the case of `COc1ccc(F)c(-c2ccc(-n3c(=O)ccc4cc(S(=O)(=O)Nc5ccon5)ccc43)c(OC)c2)c1` [Example 1033, 1-(2′-fluoro-3,5′-dimethoxy-4-biphenylyl)-N-3-isoxazolyl-2-oxo-1,2-dihydro-6-quinolinesulfonamide], under setting [1], the midpoint of inhibition, the IC50, lay at 0.064 µM. Turning to `COc1cc(-c2cc(C)ccc2F)c(C)cc1-n1c(=O)ccc2cc(S(=O)(=O)Nc3ncccn3)ccc21` [Example 970, 1-(2′-fluoro-5-methoxy-2,5′-dimethyl-4-biphenylyl)-2-oxo-N-2-pyrimidinyl-1,2-dihydro-6-quinolinesulfonamide], the IC50 (in-vitro Nav 1.7 PX data) turned out to be 0.024 µM.

Regarding `COc1cc(-c2ccc(Cl)cc2)c(F)cc1-n1c(=O)ccc2cc(S(=O)(=O)Nc3ncc(F)cn3)ccc21` [Example 750, 1-(4′-chloro-2-fluoro-5-methoxy-4-biphenylyl)-N-(5-fluoro-2-pyrimidinyl)-2-oxo-1,2-dihydro-6-quinolinesulfonamide], 0.01 µM corresponded to half-maximal inhibition (in-vitro Nav 1.7 PX data) (IC50). In the case of `COc1ccc(-c2cc(F)cc(Cl)c2)cc1-n1c(=O)ccc2cc(S(=O)(=O)Nc3ncco3)ccc21` [Example 864, 1-(3′-chloro-5′-fluoro-4-methoxy-3-biphenylyl)-N-1,3-oxazol-2-yl-2-oxo-1,2-dihydro-6-quinolinesulfonamide], under “in-vitro Nav 1.7 PX data”, the IC50 is 0.043 µM. The compound `COc1cc(-c2ccc(Cl)c(C)c2)ccc1-n1c(=O)ccc2cc(S(=O)(=O)Nc3ccon3)ccc21` (atropisomer, axis not shown; (M)) [Example 431, (M)-1-(4′-chloro-3-methoxy-3′-methyl-4-biphenylyl)-N-3-isoxazolyl-2-oxo-1,2-dihydro-6-quinolinesulfonamide] showed an IC50 of 5.05 µM.

In the case of `COc1cc(C#CC(C)(C)O)c(F)cc1-n1c(=O)ccc2cc(S(=O)(=O)Nc3ccon3)ccc21` [Example 1139, 1-(5-fluoro-4-(3-hydroxy-3-methyl-1-butyn-1-yl)-2-methoxyphenyl)-N-3-isoxazolyl-2-oxo-1,2-dihydro-6-quinolinesulfonamide], half-maximal inhibition (in-vitro Nav 1.7 PX data) (IC50) required 7.38 µM. Compound `COc1cc(-c2ccc(F)cc2)c(F)cc1-n1c(=O)ccc2cc(S(=O)(=O)Nc3ncc(F)cn3)ccc21` [Example 769, 1-(2,4′-difluoro-5-methoxy-4-biphenylyl)-N-(5-fluoro-2-pyrimidinyl)-2-oxo-1,2-dihydro-6-quinolinesulfonamide] yielded an IC50 (in-vitro Nav 1.7 PX data) of 0.1 µM.

Under “in-vitro Nav 1.7 PX data”, `COc1cc(-c2ccc(Cl)cc2)c(F)cc1-n1c(=O)ccc2cc(S(=O)(=O)Nc3ncco3)ccc21` [Example 753, 1-(4′-chloro-2-fluoro-5-methoxy-4-biphenylyl)-N-1,3-oxazol-2-yl-2-oxo-1,2-dihydro-6-quinolinesulfonamide] returned an IC50 of 0.037 µM. Compound `COc1ccc(-c2cccc(Cl)c2F)cc1-n1c(=O)ccc2cc(S(=O)(=O)Nc3ccon3)ccc21` [Example 887, 1-(3′-chloro-2′-fluoro-4-methoxy-3-biphenylyl)-N-3-isoxazolyl-2-oxo-1,2-dihydro-6-quinolinesulfonamide] had an IC50 (in-vitro Nav 1.7 PX data) of 0.03 µM.

In turn, `COc1cc(-c2cccc(OC(C)C)c2)ccc1-n1c(=O)ccc2cc(S(=O)(=O)Nc3ncco3)ccc21` [Example 826, 1-(3-methoxy-3′-(1-methylethoxy)-4-biphenylyl)-N-1,3-oxazol-2-yl-2-oxo-1,2-dihydro-6-quinolinesulfonamide] showed an IC50 (in-vitro Nav 1.7 PX data) of 0.14 µM.

The compound `COc1ccc(-c2cccc(C(F)(F)F)c2)cc1-n1c(=O)ccc2cc(S(=O)(=O)Nc3ccon3)ccc21` (atropisomer, axis not shown; (P)) [Example 381, (P)—N-3-isoxazolyl-1-(4-methoxy-3′-(trifluoromethyl)-3-biphenylyl)-2-oxo-1,2-dihydro-6-quinolinesulfonamide] displayed an IC50 of 0.015 µM. Consider `COc1ccc(-c2cccc(Cl)c2)cc1-n1c(=O)ccc2cc(S(=O)(=O)Nc3ccon3)ccc21` [Example 852, 1-(3′-chloro-4-methoxy-3-biphenylyl)-N-3-isoxazolyl-2-oxo-1,2-dihydro-6-quinolinesulfonamide], for which the IC50 (in-vitro Nav 1.7 PX data) came to 0.022 µM.

For the compound `COc1cccc(-c2cc(OC)c(-n3c(=O)ccc4cc(S(=O)(=O)Nc5ccon5)ccc43)cc2F)n1` [Example 805, 1-(5-fluoro-2-methoxy-4-(6-methoxy-2-pyridinyl)phenyl)-N-3-isoxazolyl-2-oxo-1,2-dihydro-6-quinolinesulfonamide], it took 0.07 µM to reach half-maximal inhibition (in-vitro Nav 1.7 PX data) (IC50). On the same count and under the same terms, for `COc1cc(F)cc(-c2ccc(OC)c(-n3c(=O)ccc4cc(S(=O)(=O)Nc5ccon5)ccc43)c2)c1` [Example 838, 1-(3′-fluoro-4,5′-dimethoxy-3-biphenylyl)-N-3-isoxazolyl-2-oxo-1,2-dihydro-6-quinolinesulfonamide] the value was 0.069 µM. `COc1nc(C2CC2)c(Cl)cc1-n1c(=O)ccc2cc(S(=O)(=O)Nc3ccon3)ccc21` [640/830, 1-(5-chloro-6-cyclopropyl-2-methoxy-3-pyridinyl)-N-3-isoxazolyl-2-oxo-1,2-dihydro-6-quinolinesulfonamide]: for the setting “in-vitro Nav 1.7 PX data”, the midpoint of inhibition, the IC50, lay at 0.038 µM. Regarding `COc1cc(-c2ccc(F)c(F)c2)c(F)cc1-n1c(=O)cnc2cc(S(=O)(=O)Nc3cccnn3)ccc21` [Example 1180, 2-oxo-N-3-pyridazinyl-1-(2,3′,4′-trifluoro-5-methoxy-4-biphenylyl)-1,2-dihydro-6-quinoxalinesulfonamide], half-maximal inhibition (IC50) required 0.265 µM. Turning to `COc1cc(C#CC(C)(C)C)c(F)cc1-n1c(=O)ccc2cc(S(=O)(=O)Nc3ccon3)ccc21` [Example 1122, 1-(4-(3,3-dimethyl-1-butyn-1-yl)-5-fluoro-2-methoxyphenyl)-N-3-isoxazolyl-2-oxo-1,2-dihydro-6-quinolinesulfonamide], where the note is “in-vitro Nav 1.7 PX data”, the half-inhibitory concentration (IC50) stood at 0.08 µM. Regarding `COc1cc(OC)cc(-c2ccc(-n3c(=O)ccc4cc(S(=O)(=O)Nc5ccon5)ccc43)c(OC)c2)c1` [Example 811, N-3-isoxazolyl-2-oxo-1-(3,3′,5′-trimethoxy-4-biphenylyl)-1,2-dihydro-6-quinolinesulfonamide], the IC50 (in-vitro Nav 1.7 PX data) came to 0.066 µM. Turning to `COc1cc(-c2cc(F)cc(Cl)c2)c(F)cc1-n1c(=O)ccc2cc(S(=O)(=O)Nc3ncccn3)ccc21` (atropisomer, axis not shown; (P)) [Example 541, (P)-1-(3′-chloro-2,5′-difluoro-5-methoxy-4-biphenylyl)-2-oxo-N-2-pyrimidinyl-1,2-dihydro-6-quinolinesulfonamide], the IC50 amounted to 0.018 µM.

`COc1cc(-c2ccc(Cl)cc2F)c(F)cc1-n1c(=O)ccc2cc(S(=O)(=O)Nc3ccon3)ccc21` [Example 733, 1-(4′-chloro-2,2′-difluoro-5-methoxy-4-biphenylyl)-N-3-isoxazolyl-2-oxo-1,2-dihydro-6-quinolinesulfonamide] had an IC50 (in-vitro Nav 1.7 PX data) of 0.02 µM.

Regarding `COc1nc(-c2cc(F)cc(Cl)c2)c(Cl)cc1-n1c(=O)ccc2cc(S(=O)(=O)Nc3ccon3)ccc21` [Example 1071, 1-(5-chloro-6-(3-chloro-5-fluorophenyl)-2-methoxy-3-pyridinyl)-N-3-isoxazolyl-2-oxo-1,2-dihydro-6-quinolinesulfonamide], 0.348 µM corresponded to half-maximal inhibition (in-vitro Nav 1.7 PX data) (IC50). `COc1cc(-c2cccc(C(F)(F)F)c2)c(Cl)cc1-n1c(=O)ccc2cc(S(=O)(=O)Nc3ccon3)ccc21` (atropisomer, axis not shown; (M)) [Example 534, (M)-1-(2-chloro-5-methoxy-3′-(trifluoromethyl)-[1,1′-biphenyl]-4-yl)-N-(isoxazol-3-yl)-2-oxo-1,2-dihydroquinoline-6-sulfonamide] yielded an IC50 of 1.35 µM. Under “in-vitro Nav 1.7 PX data”, `COc1cc([C@@H]2CCOC(C)(C)C2)c(F)cc1-n1c(=O)ccc2cc(S(=O)(=O)Nc3ccon3)ccc21` [Example 1096, 1-(4-((4R)-2,2-dimethyltetrahydro-2H-pyran-4-yl)-5-fluoro-2-methoxyphenyl)-N-3-isoxazolyl-2-oxo-1,2-dihydro-6-quinolinesulfonamide, 1-(4-((4S)-2,2-dimethyltetrahydro-2H-pyran-4-yl)-5-fluoro-2-methoxyphenyl)-N-3-isoxazolyl-2-oxo-1,2-dihydro-6-quinolinesulfonamide] gave an IC50 of 1.12 µM. Same read-out and setting: for `COc1cc(-c2ccc(Cl)cc2C(N)=O)c(F)cc1-n1c(=O)ccc2cc(S(=O)(=O)Nc3ccon3)ccc21` [Example 755, 4-chloro-2′-fluoro-4′-(6-(3-isoxazolylsulfamoyl)-2-oxo-1(2H)-quinolinyl)-5′-methoxy-2-biphenylcarboxamide] the value was 0.351 µM; for `COc1ccc(-c2cc(Cl)ccc2F)cc1-n1c(=O)ccc2cc(S(=O)(=O)Nc3ccon3)ccc21` [Example 880, 1-(5′-chloro-2′-fluoro-4-methoxy-3-biphenylyl)-N-3-isoxazolyl-2-oxo-1,2-dihydro-6-quinolinesulfonamide], 0.032 µM.
